Experimental data published in ChEMBL document CHEMBL1201862, “PubChem BioAssay data set” (2004).
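Compound exposure: 48 hours, 5 concentrations, 96-well plates. GI50 is the concentration that inhibits growth by half.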 Activity calls are given as the source filed them. Rule as the data show it: active = GI50 up to about 1.1 µM and inactive = higher. Where a SMILES comes first, the peptide text is derived from it.

Tests used:
Assay in all cases: NCI anticancer screen, dose series, 48 h
CCRF-CEM = test system: CCRF-CEM
HCT-15 = test system: HCT-15
UO-31 = test system: UO-31
786-0 = test system: 786-0
SF-539 = test system: SF-539
OVCAR-5 = test system: OVCAR-5
Hs-578T = test system: Hs-578T
UACC-257 = test system: UACC-257
HOP-92 = test system: HOP-92
HT-29 = test system: HT-29
A498 = test system: A498
SK-MEL-5 = test system: SK-MEL-5
T47D = test system: T47D
SK-OV-3 = test system: SK-OV-3
A549 = test system: A549
IGROV-1 = test system: IGROV-1
NCI-H23 = test system: NCI-H23
NCI-H460 = test system: NCI-H460
MDA-MB-435 = test system: MDA-MB-435
KM12 = test system: KM12

| Compound | GI50 (CCRF-CEM) | GI50 (HCT-15) [µM] | GI50 (UO-31) | GI50 (786-0) | GI50 (SF-539) | GI50 (OVCAR-5) | GI50 (Hs-578T) | GI50 (UACC-257) | GI50 (HOP-92) | GI50 (HT-29) | GI50 (A498) | GI50 (SK-MEL-5) | GI50 (T47D) | GI50 (SK-OV-3) | GI50 (A549) | GI50 (IGROV-1) | GI50 (NCI-H23) | GI50 (NCI-H460) | GI50 (MDA-MB-435) | GI50 (KM12) |
| --- | --- | --- | --- | --- | --- | --- | --- | --- | --- | --- | --- | --- | --- | --- | --- | --- | --- | --- | --- | --- |
| Oc1ccc(CCNCc2cc3c(cc2Br)OCO3)cc1 | 73.8 µM (inactive) | > 100 | 55.7 µM (inactive) | 71 µM (inactive) | 4.17 µM (inactive) | > 100 µM (inactive) | > 100 µM (inactive) | 50.2 µM (inactive) | > 100 µM (inactive) | 52.8 µM (inactive) | 50 µM (inactive) | 27.1 µM (inactive) | 41.4 µM (inactive) | 51.8 µM (inactive) | > 100 µM (inactive) | > 100 µM (inactive) | > 100 µM (inactive) | 57.8 µM (inactive) | – | – |
| O=C1CC(C(OCc2ccccc2)C(OCc2ccccc2)C(OCc2ccccc2)C(COCc2ccccc2)OCc2ccccc2)CC(=O)N1 (stereo not given) | > 100 µM (inactive) | > 100 | 60.1 µM (inactive) | > 100 µM (inactive) | – | > 100 µM (inactive) | > 100 µM (inactive) | > 100 µM (inactive) | 18 µM (inactive) | > 100 µM (inactive) | > 100 µM (inactive) | > 100 µM (inactive) | – | – | > 100 µM (inactive) | > 100 µM (inactive) | > 100 µM (inactive) | > 100 µM (inactive) | > 100 µM (inactive) | – |
| COc1ccc(N2C(=O)CC(C3CC(C(C)(C)C)CCC3=O)C2=O)cc1 (stereo not given) | > 100 µM (inactive) | > 100 | > 100 µM (inactive) | > 100 µM (inactive) | > 100 µM (inactive) | – | > 100 µM (inactive) | > 100 µM (inactive) | – | > 100 µM (inactive) | – | > 100 µM (inactive) | > 100 µM (inactive) | > 100 µM (inactive) | > 100 µM (inactive) | > 100 µM (inactive) | > 100 µM (inactive) | > 100 µM (inactive) | > 100 µM (inactive) | > 100 µM (inactive) |
| CO/N=C(\C(=O)[N-]n1cn[n+](CC(=O)OC(C)(C)C)c1)c1csc(NC(c2ccccc2)(c2ccccc2)c2ccccc2)n1 | > 10 µM (inactive) | > 10 | > 10 µM (inactive) | > 10 µM (inactive) | > 10 µM (inactive) | > 10 µM (inactive) | > 10 µM (inactive) | > 10 µM (inactive) | > 10 µM (inactive) | > 10 µM (inactive) | > 10 µM (inactive) | > 10 µM (inactive) | > 10 µM (inactive) | > 10 µM (inactive) | > 10 µM (inactive) | > 10 µM (inactive) | > 10 µM (inactive) | > 10 µM (inactive) | – | > 10 µM (inactive) |
| Nc1cc(N2CCOCC2)nc(=O)n1-c1ccc(Cl)cc1 | > 100 µM (inactive) | > 100 | > 100 µM (inactive) | > 100 µM (inactive) | > 100 µM (inactive) | > 100 µM (inactive) | – | > 100 µM (inactive) | > 100 µM (inactive) | > 100 µM (inactive) | > 100 µM (inactive) | > 100 µM (inactive) | > 100 µM (inactive) | > 100 µM (inactive) | > 100 µM (inactive) | > 100 µM (inactive) | > 100 µM (inactive) | > 100 µM (inactive) | > 100 µM (inactive) | > 100 µM (inactive) |
| CCOC(=O)C1(C(=O)OCC)C[C@H](C)[C@](C)(O)C1 | > 100 µM (inactive) | > 100 | > 100 µM (inactive) | > 100 µM (inactive) | > 100 µM (inactive) | > 100 µM (inactive) | > 100 µM (inactive) | > 100 µM (inactive) | > 100 µM (inactive) | > 100 µM (inactive) | > 100 µM (inactive) | > 100 µM (inactive) | – | > 100 µM (inactive) | > 100 µM (inactive) | > 100 µM (inactive) | > 100 µM (inactive) | > 100 µM (inactive) | > 100 µM (inactive) | > 100 µM (inactive) |
| O=C(O)C1Cc2ccccc2OC1=O (stereo not given) | – | > 100 | > 100 µM (inactive) | > 100 µM (inactive) | > 100 µM (inactive) | > 100 µM (inactive) | > 100 µM (inactive) | > 100 µM (inactive) | – | > 100 µM (inactive) | – | > 100 µM (inactive) | > 100 µM (inactive) | > 100 µM (inactive) | > 100 µM (inactive) | > 100 µM (inactive) | 8.69 µM (inactive) | > 100 µM (inactive) | > 100 µM (inactive) | > 100 µM (inactive) |
| O=C1Oc2ccccc2C(=O)/C1=C/N1C(=O)CNC1=S | 80.2 µM (inactive) | > 100 | 23 µM (inactive) | > 100 µM (inactive) | > 100 µM (inactive) | > 100 µM (inactive) | > 100 µM (inactive) | > 100 µM (inactive) | – | > 100 µM (inactive) | – | > 100 µM (inactive) | > 100 µM (inactive) | 95.1 µM (inactive) | > 100 µM (inactive) | > 100 µM (inactive) | > 100 µM (inactive) | 63 µM (inactive) | > 100 µM (inactive) | > 100 µM (inactive) |
| O=C1C(=C2SC(c3ccccc3)(c3ccccc3)c3ccccc32)C(=O)c2ccccc21 | > 100 µM (inactive) | > 100 | > 100 µM (inactive) | > 100 µM (inactive) | > 100 µM (inactive) | > 100 µM (inactive) | > 100 µM (inactive) | 72.4 µM (inactive) | > 100 µM (inactive) | > 100 µM (inactive) | > 100 µM (inactive) | > 100 µM (inactive) | – | > 100 µM (inactive) | > 100 µM (inactive) | > 100 µM (inactive) | > 100 µM (inactive) | > 100 µM (inactive) | > 100 µM (inactive) | > 100 µM (inactive) |
| CC(=O)OCC1OC(n2c(C)c(/N=N/c3ccccc3)c(C)c(C#N)c2=S)C(OC(C)=O)C(OC(C)=O)C1OC(C)=O (stereo not given) | > 100 µM (inactive) | – | > 100 µM (inactive) | 7.38 µM (inactive) | 58.7 µM (inactive) | 86.9 µM (inactive) | 5.32 µM (inactive) | > 100 µM (inactive) | 8.99 µM (inactive) | > 100 µM (inactive) | – | 34 µM (inactive) | > 100 µM (inactive) | 22.6 µM (inactive) | 57.3 µM (inactive) | 99.1 µM (inactive) | > 100 µM (inactive) | 39.8 µM (inactive) | > 100 µM (inactive) | > 100 µM (inactive) |
| CC(C)COC(c1ccc2c(c1)OCO2)C(C)Br (stereo not given) | – | 23.3 | 22.5 µM (inactive) | 23.4 µM (inactive) | 23.3 µM (inactive) | 19.7 µM (inactive) | 25.9 µM (inactive) | 23 µM (inactive) | 21.7 µM (inactive) | 18.9 µM (inactive) | 33.4 µM (inactive) | 18.7 µM (inactive) | – | 24.1 µM (inactive) | 29.1 µM (inactive) | 32.8 µM (inactive) | 26.2 µM (inactive) | 20 µM (inactive) | 21.7 µM (inactive) | 22.9 µM (inactive) |
| O=C1/C(=N\NC(=S)Nc2ccc(Cl)cc2)c2cc([N+](=O)[O-])ccc2N1CN1CCOCC1 | 2.85 µM (inactive) | 3.36 | 3.78 µM (inactive) | 4.41 µM (inactive) | 11.3 µM (inactive) | – | 7.03 µM (inactive) | 13.2 µM (inactive) | 8.47 µM (inactive) | – | – | 4 µM (inactive) | 4.37 µM (inactive) | 12.6 µM (inactive) | 8.22 µM (inactive) | 4.19 µM (inactive) | 2.08 µM (inactive) | 7.78 µM (inactive) | 6.38 µM (inactive) | 11.7 µM (inactive) |
| CC(=O)OCC(OC(C)=O)C1C[C@H]2O[C@@H]3[C@H](C[C@H]2O1)O[C@@]1(C[C@@H]3C)C[C@H](C)[C@@H]2O[C@]3(C[C@@H]2O1)C[C@H]1O[C@H]2[C@H](C)[C@H]4OC(=O)CC5CC[C@H]6OC7[C@H]8O[C@]9(CC[C@H]%10CC(O)(CO)[C@H](CC[C@H]%11C[C@@H](C)C(O)(CO)C(C[C@@H]4O[C@H]2C[C@H]1O3)O%11)O%10)CC8O[C@@H]7[C@@H](O9)[C@H]6O5 (stereo not given in full) | 0.00944 µM (active) | 0.00486 | 0.0226 µM (active) | 0.00532 µM (active) | – | > 0.27 µM (active) | 0.00154 µM (active) | 0.00555 µM (active) | 0.0504 µM (active) | – | > 0.214 µM (active) | 0.00141 µM (active) | – | 0.0284 µM (active) | 0.00643 µM (active) | 0.00436 µM (active) | 0.00496 µM (active) | 0.00371 µM (active) | 0.000853 µM (active) | 0.00415 µM (active) |
| Cc1ccc(/C=C2\CCCc3ccccc3C2=O)cc1 | 15.1 µM (inactive) | 6.64 | 29.6 µM (inactive) | 18 µM (inactive) | 13.8 µM (inactive) | 10.3 µM (inactive) | 12.4 µM (inactive) | 21.9 µM (inactive) | 18.5 µM (inactive) | 3.18 µM (inactive) | – | – | – | 13.2 µM (inactive) | 5.86 µM (inactive) | 7.14 µM (inactive) | 9.2 µM (inactive) | 7.23 µM (inactive) | 2.6 µM (inactive) | 4.11 µM (inactive) |
| CNC(=O)CNC(=O)C(NC(=O)CNC(=O)C1CCCN1C(=O)C(C)NC(=O)C(NC(C)=O)C(C)C)C(C)C (stereo not given) (Ac-VAPGVG-NHMe; configuration not given here) | > 100 µM (inactive) | > 100 | > 100 µM (inactive) | > 100 µM (inactive) | > 100 µM (inactive) | > 100 µM (inactive) | – | > 100 µM (inactive) | > 100 µM (inactive) | > 100 µM (inactive) | > 100 µM (inactive) | – | > 100 µM (inactive) | > 100 µM (inactive) | – | > 100 µM (inactive) | > 100 µM (inactive) | > 100 µM (inactive) | > 100 µM (inactive) | – |
